From US20240316038A1, “APOL1 INHIBITORS AND METHODS OF USE” (Maze Therapeutics, Inc., priority 2021, published 2024)
pEC50: −log10 of the molar value.

How the values were obtained:
[1] = biological target: T1, APOL1 G2 (Homo sapiens, UniProt O14791, DEL388-389); assay: Rescue of HEK293 cell death caused by overexpression of APOL1 (CellTiter-Glo luminescence), HEK293/T-REx APOL1 G2/clone #2; assay type: cell-based; conditions: reversal of cell death caused by overexpression of APOL1; geometric mean of at least 2 assay runs, † = single assay run (technical duplicate)
T1 construct: expressed in transfected cells; host or cells: HEK293 T-REx clonal lines: HEK T-REx/GCaMP6f/APOL1 G2 K6.3 in A1, HEK293/T-REx APOL1 G2/clone #2 in A2
T1 sequence (O14791 with tags, fused parts or gaps DEL388-389): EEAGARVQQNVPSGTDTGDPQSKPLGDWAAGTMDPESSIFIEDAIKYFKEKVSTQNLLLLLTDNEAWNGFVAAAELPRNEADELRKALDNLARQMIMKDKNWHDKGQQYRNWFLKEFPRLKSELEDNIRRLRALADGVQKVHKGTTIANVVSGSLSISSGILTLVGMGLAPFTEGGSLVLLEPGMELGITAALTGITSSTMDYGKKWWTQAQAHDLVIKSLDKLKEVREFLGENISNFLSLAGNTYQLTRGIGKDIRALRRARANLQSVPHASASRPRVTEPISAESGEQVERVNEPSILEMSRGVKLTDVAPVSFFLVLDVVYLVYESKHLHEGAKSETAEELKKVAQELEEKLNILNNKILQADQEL
Summary of the method: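 HEK293/T-REx APOL1 G2 clone #2 cells, 5,000/well, induced with 6 ng/mL doxycycline and exposed to compound (8-point, 3-fold dilutions, 0.5% DMSO) for 17 h at 37 °C. Viability by CellTiter-Glo luminescence; EC50 for reversal of APOL1-induced death from a four-parameter logistic fit, geometric mean of ≥2 runs.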

[2] = biological target: T1, APOL1 G2; assay: APOL1 calcium transport inhibition assay (GCaMP6f calcium influx, FLIPR) in HEK T-REx/GCaMP6f/APOL1 G2 K6.3 cells; assay type: cell-based; conditions: inhibition of APOL1-mediated calcium influx; geometric mean of at least 2 assay runs, † = single assay run (technical duplicate)
Summary of the method: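 HEK293 cells stably expressing GCaMP6f, APOL1 G2 induced 6 h with doxycycline (20 ng/mL added), then washed into Ca2+-free Tyrode's buffer pH 7.4. Compounds (8-point dose response) preincubated 10 min at room temperature, then Ca2+ injected to 5 mM final and influx read on FLIPR. AC50 reported as geometric mean of runs.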

## C[C@@H]1C[C@H](COc2ccc(S(C)(=O)=O)cc2)CN1CC(O)c1cc(C#N)cc(C#N)c1 (single isomer, unassigned) [Compound 119, 5-[(1S or 1R)-1-hydroxy-2-[(2R,4S)-4-[(4-methanesulfonylphenoxy)methyl]-2-methylpyrrolidin-1-yl]ethyl]benzene-1,3-dicarbonitrile]
[1]
  pEC50: 6.88
[2]
  AC50: 784 nM

## C[C@@H]1CN(CC(O)c2cc(Cl)cc(C#N)c2)C[C@H]1COc1ccc(S(C)(=O)=O)cc1 (single isomer, unassigned) [Compound 121, 3-chloro-5-[(1S or 1R)-1-hydroxy-2-[(3S,4S)-3-[(4-methanesulfonylphenoxy)methyl]-4-methylpyrrolidin-1-ylethyl]benzonitrile]
[1]
  pEC50: 7.00
[2]
  AC50: 270 nM

## C[C@@H]1CN(CC(O)c2cc(Cl)cc(C#N)c2)C[C@H]1COc1ccc(S(C)(=O)=O)cc1 (single isomer, unassigned) [Compound 122, 3-chloro-5-[(1R or 1S)-1-hydroxy-2-[(3S,4S)-3-[(4-methanesulfonylphenoxy)methyl]-4-methylpyrrolidin-1-yl]ethyl] benzonitrile]
[1]
  pEC50: 5.87
[2]
  AC50: 709 nM

## C[C@@H]1CN(CC(O)c2cccc(Cl)c2)C[C@H]1COc1ccc(S(C)(=O)=O)cc1 (single isomer, unassigned) [Compound 124, (1R or 1S)-1-(3-chlorophenyl)-2-[(3S,4S)-3-[(4-methanesulfonylphenoxy)methyl]-4-methylpyrrolidin-1-yl]ethan-1-ol]
[1]
  pEC50: 6.62
[2]
  AC50: 148 nM

## C[C@@H]1CN(CC(O)c2cccc(Cl)c2)C[C@H]1COc1ccc(S(C)(=O)=O)cc1 (single isomer, unassigned) [Compound 125, (1S or 1R)-1-(3-chlorophenyl)-2-[(3S,4S)-3-[(4-methanesulfonylphenoxy)methyl]-4-methylpyrrolidin-1-yl]ethan-1-ol]
[1]
  pEC50: 5.81
[2]
  AC50: 2350 nM

## C[C@@H]1CN(CC(O)c2cccc(C#N)c2)C[C@H]1COc1ccc(S(C)(=O)=O)cc1 (single isomer, unassigned) [Compound 127, 3-[(1S or 1R)-1-hydroxy-2-[(3S,4S)-3-[(4-methanesulfonylphenoxy)methyl]-4-methylpyrrolidin-1-yl]ethyl] benzonitrile]
[1]
  pEC50: < 5.00
[2]
  AC50: 2480 nM

## C[C@@H]1CN(CC(O)c2cccc(C#N)c2)C[C@H]1COc1ccc(S(C)(=O)=O)cc1 (single isomer, unassigned) [Compound 128, 3-[(1R or 1S)-1-hydroxy-2-[(35,4S)-3-[(4-methanesulfonylphenoxy)methyl]-4-methylpyrrolidin-1-ylethyl]benzonitrile]
[1]
  pEC50: 6.44
[2]
  AC50: 349 nM

## C[C@@H]1CN(CC(O)c2cc(C#N)cc(C#N)c2)C[C@H]1COc1ccc(S(C)(=O)=O)cc1 (single isomer, unassigned) [Compound 130, 5-[(1R or 1S)-1-hydroxy-2-[(3S,4S)-3-[(4-methanesulfonylphenoxy)methyl]-4-methylpyrrolidin-1-yl]ethyl]benzene-1,3-dicarbonitrile]
[1]
  pEC50: < 5.00
[2]
  AC50: 2170 nM

## C[C@@H]1CN(CC(O)c2cc(C#N)cc(C#N)c2)C[C@H]1COc1ccc(S(C)(=O)=O)cc1 (single isomer, unassigned) [Compound 131, 5-[(1S or 1R)-1-hydroxy-2-[(35,4S)-3-[(4-methanesulfonylphenoxy)methyl]-4-methylpyrrolidin-1-yl]ethyl]benzene-1,3-dicarbonitrile]
[1]
  pEC50: 6.34
[2]
  AC50: 394 nM

## CC1CC(COc2ccc(S(C)(=O)=O)cc2)CN1CCc1cccc(C#N)c1 (single isomer, unassigned) [Compound 135, rac-cis or trans-3-{2-[4-[(4-methanesulfon-ylphenoxy)meth-yl]-2-methyl-pyrrolidin-1-yl]-ethyl}benzo-nitrile]
[1]
  pEC50: 5.24
[2]
  AC50: > 12500 nM
